# Measured values from patent publication US20210002712A1, “PHOSPHATIDIC ACID SENSOR” (NATIONAL UNIVERSITY CORPORATION CHIBA UNIVERSITY, priority 2019, published 2021).
# Assays:
# PLD2 = PLD2 (Homo sapiens, UniProt O14939); conditions: COS-7 cells, 750 nM for 4 h
# Method: EGFP-PLD2 was coexpressed with either the DsRed monomer alone or DsRed monomer α-Syn-N in COS-7 cells as indicated. After 24 h of transfection, the cells were incubated with 750 nM FIPI in growth medium for 4 h and then fixed and imaged. […] The localization of EGFP-PLD2-WT and DsRed monomer α-Syn-N was quantified using ImageJ software. COS-7 cells were grown and transfected as described in the above section. […] The cells were then fixed in 4% paraformaldehyde. The coverslips were mounted using Vectashield. Fluorescence images were acquired using an Olympus FV1000-D (IX81) confocal laser scanning microscope. GFP fluorescence was excited at 488 nm, and DsRed fluorescence was excited at 543 nm. Images were acquired using FV-10 ASW software.
# EGFP-DGKγ = molecular target: T1, EGFP-DGKγ (Homo sapiens, UniProt P49619); test: PMA-induced translocation of EGFP-DGKγ in COS-7 cells; type: cell-based; conditions: 1 μM PMA for 30 min
# T1 construct: expressed in transfected cells; host or cells: COS-7
# Method: FIGS. 19 and 20. […] Representative data from three independent experiments are shown. Scale bars, 20 μm. FIG. 20.
# COS-7 cells were maintained in Dulbecco's modified Eagle's medium supplemented with 10% fetal bovine serum, 100 units/ml penicillin, and 100 μg/ml streptomycin at 37° C. in an atmosphere containing 5% CO2. Cells were transiently transfected using PolyFect reagent as described by the manufacturer.
# The cells were then fixed in 4% paraformaldehyde. The coverslips were mounted using Vectashield. […] Images were acquired using FV-10 ASW software.
# [1] = Liposome cosedimentation assay, 18:1/18:1-PA liposomes; type: binding; conditions: 6×His-SUMO-tagged protein 2.5 μM; PA 150 μM
# Method: FIG. 1. A schematic architecture of α-Syn and its deletion mutants. FIG. 2. The purified SUMO-tagged-α-Syn and its deletion mutant protein (2.5 μM) were incubated with 18:1/18:1-PA or 18:1/18:1-PS liposomes (PA or […]: 150 μM) and then separated by ultracentrifugation. SDS-PAGE (15%) was performed and separated proteins were stained with Coomassie Brilliant Blue. The positions of α-Syn and its mutants are indicated with arrow heads. The amounts of protein in the supernatant (S) and precipitant (P) were quantified by densitometry using ImageJ software. Binding activity was calculated as the percentage of the precipitate band intensity compared to the total band intensities. Values are presented as the mean±S.D. of four independent experiments. **P<0.01 versus the 18:1/18:1-PS liposome.
# FIG. 3. The purified SUMO-tagged-α-Syn-N protein (2.5 μM) was incubated with control (PC and Chol alone), 16:0/16:0-PA, 16:0/18:1-PA, 18:1/18:1-PA, or 18:0/18:0-PA liposomes (PA: 150 μM) and then separated by ultracentrifugation. SDS-PAGE (15%) was performed and separated proteins were stained with Coomassie Brilliant Blue. The position of α-Syn-N is indicated with an arrow head.
# FIG. 4. The amounts of protein in the supernatant (S) and precipitant (P) were quantified by densitometry using ImageJ software. Binding activity was calculated as the percentage of the precipitate band intensity compared to the total band intensities. Values are presented as the mean±S.D. of three independent experiments. #P<0.05, ##P<0.01, ###P<0.005 versus the 18:1/18:1-PA-liposome, *P<0.05, ***P<0.005 versus the control liposome.
# (§1) FIG. 5. The purified SUMO-tagged-α-Syn protein (0.1 μM) was incubated with 18:1/18:1-PA liposomes of the indicated concentrations (0-20 μM) and then separated by ultracentrifugation. SDS-PAGE (15%) was performed and separated proteins were detected with silver staining. The position of α-Syn-N is indicated with an arrow head.
# FIG. 6. The amounts of protein in the precipitant were quantified by densitometry using ImageJ software. Binding activity was calculated as the percentage of the precipitate band intensity compared to the total band intensities (Input). Values are presented as the mean±S.D. of four independent experiments. The Kd was determined using GraphPad Prism 8 (Dissociation-One phase exponential decay).
# as §1, with “7.” for “5.”, “18:1/18:1-PA, 18:1/18:1-PS, 18:1/18:1-PI(4,5)P2, 18:1/18:1-PE and d18:1/18:1-C1P” for “18:1/18:1-PA”, “(20” for “of the indicated concentrations (0-20”, “(15%) analysis” for “(15%)”
# FIG. 8. The amounts of protein in the precipitant were quantified by densitometry using ImageJ software. The PA binding activity of α-Syn-N was set to 100%. Values are presented as the mean±S.D. of three independent experiments. ***P<0.005 versus 18:1/18:1-PA liposome.
# The following lipid mixtures were used: the control liposome: Chol (50 mol %) and 16:0/18:1-PC (50 mol %); and the PA liposome: Chol (50 mol %), 16:0/18:1-PC (35 mol %) and each PA species (15 mol %). The combined dried lipid mixture was resuspended in HEPES buffer. Then, the lipid mixture was vortexed for 1 min. Liposome formation was induced by sonication at 75° C. The purified SUMO-tagged α-Syn and its deletion mutants (2.5 μM) were dissolved in HEPES buffer and incubated with the control or PA-containing liposomes at room temperature for 1 h. Then, the samples were centrifuged at 200,000 g at 4° C. for 1 h. The precipitant was dissolved in HEPES buffer. The supernatant and pellet were analyzed by SDS-PAGE followed by Coomassie Brilliant Blue and silver staining. Quantitative densitometry was performed using ImageJ software. Since the lipid forms a bilayer, half of the actual concentration was considered.
# PLD2, sequence (O14939 whole entry): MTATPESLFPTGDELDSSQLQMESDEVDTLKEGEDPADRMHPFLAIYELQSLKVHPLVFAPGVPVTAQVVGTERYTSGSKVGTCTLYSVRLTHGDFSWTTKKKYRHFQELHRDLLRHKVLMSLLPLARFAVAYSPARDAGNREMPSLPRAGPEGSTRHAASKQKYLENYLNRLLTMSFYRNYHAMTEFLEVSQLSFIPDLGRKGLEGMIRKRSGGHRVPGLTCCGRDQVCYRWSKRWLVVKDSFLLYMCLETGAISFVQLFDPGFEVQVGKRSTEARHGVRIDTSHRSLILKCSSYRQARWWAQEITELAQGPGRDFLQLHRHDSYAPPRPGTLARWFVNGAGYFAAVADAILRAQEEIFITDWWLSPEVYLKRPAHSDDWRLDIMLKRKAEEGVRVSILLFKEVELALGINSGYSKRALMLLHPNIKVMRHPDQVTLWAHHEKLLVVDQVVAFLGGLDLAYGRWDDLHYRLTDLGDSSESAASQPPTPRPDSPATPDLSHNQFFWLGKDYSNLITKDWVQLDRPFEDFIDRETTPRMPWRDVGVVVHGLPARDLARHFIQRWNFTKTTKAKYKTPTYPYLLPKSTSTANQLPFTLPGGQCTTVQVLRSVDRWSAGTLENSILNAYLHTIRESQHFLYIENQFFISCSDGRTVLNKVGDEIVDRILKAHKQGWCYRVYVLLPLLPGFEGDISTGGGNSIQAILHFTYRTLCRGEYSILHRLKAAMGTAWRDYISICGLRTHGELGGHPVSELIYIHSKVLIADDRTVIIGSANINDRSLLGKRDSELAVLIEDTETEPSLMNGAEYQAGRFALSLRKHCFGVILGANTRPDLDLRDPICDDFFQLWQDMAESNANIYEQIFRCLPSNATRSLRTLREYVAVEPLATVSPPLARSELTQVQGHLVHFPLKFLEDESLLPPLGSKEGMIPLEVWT
# T1 sequence (P49619 whole entry): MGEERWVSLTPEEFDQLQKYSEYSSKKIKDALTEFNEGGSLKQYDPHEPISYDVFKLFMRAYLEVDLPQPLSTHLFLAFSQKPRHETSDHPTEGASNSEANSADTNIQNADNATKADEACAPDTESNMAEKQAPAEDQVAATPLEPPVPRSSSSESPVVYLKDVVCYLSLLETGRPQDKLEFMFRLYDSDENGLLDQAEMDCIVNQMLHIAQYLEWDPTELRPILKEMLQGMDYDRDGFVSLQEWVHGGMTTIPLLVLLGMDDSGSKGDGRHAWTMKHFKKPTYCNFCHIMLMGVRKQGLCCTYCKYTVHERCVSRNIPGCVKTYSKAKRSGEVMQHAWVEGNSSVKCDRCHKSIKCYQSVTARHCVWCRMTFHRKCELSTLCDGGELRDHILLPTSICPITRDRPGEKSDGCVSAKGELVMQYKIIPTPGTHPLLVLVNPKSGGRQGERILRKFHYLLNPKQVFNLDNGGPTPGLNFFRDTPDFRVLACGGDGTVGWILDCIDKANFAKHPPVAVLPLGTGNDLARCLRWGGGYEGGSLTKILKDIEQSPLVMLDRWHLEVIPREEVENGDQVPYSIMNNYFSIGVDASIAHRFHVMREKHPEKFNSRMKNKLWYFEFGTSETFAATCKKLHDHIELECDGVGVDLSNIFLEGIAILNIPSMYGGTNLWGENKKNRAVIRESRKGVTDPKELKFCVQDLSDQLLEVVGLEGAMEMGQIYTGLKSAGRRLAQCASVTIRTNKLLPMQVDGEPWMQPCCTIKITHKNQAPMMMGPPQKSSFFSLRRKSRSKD
compound,measurement,setting,value
"O=C(NCCN1CCC(n2c(=O)[nH]c3ccccc32)CC1)c1cc2cc(F)ccc2[nH]1 [FIPI, 5-fluoro-2-indolyl deschlorohalopemide]",effect on colocalization of EGFP-PLD2 and DsRed-α-Syn-N,PLD2,markedly attenuated their colocalization
"CCCCCCCCCCCCCC(=O)O[C@@H]1[C@@H](C)[C@@]2(O)[C@@H](C=C(CO)C[C@]3(O)C(=O)C(C)=C[C@@H]23)[C@@H]2C(C)(C)[C@]12OC(C)=O [PMA, phorbol 12-myristate 13-acetate]",translocation of EGFP-DGKγ,EGFP-DGKγ,led to the translocation of EGFP-DGKγ from the cytoplasm to the plasma membrane
"α-Syn-C: C-terminal region deletion mutant of α-Syn (Lys96-Ala140), 6×His-SUMO-tagged",PA-binding activity (18:1/18:1-PA liposomes),[1],failed to show substantial PA-binding activity
